According to patent US20200164047A1, “THERAPY AND DIAGNOSIS OF DISEASE CHARACTERIZED BY ALTERATIONS IN THE DNA DAMAGE RESPONSE” (UNIVERSITÀ DEGLI STUDI DI MILANO, priority 2017, published 2020):

Legend:
[1] = test system: cancer cell lines representative of different cancer types; experiment: Proliferation of cancer cell lines by CellTiter-Glo assay; format: cell-based; details: nutrient-rich conditions
Description: FIG. 20. […] (F, G) Quantification of oxygen consumption rate normalized by cell numbers of cells cultured in DMEM medium containing the indicated concentrations of glucose for 12 hours (F) or in DMEM medium containing with 2.5 mM glucose for the indicated time points (G).
CellTiter Glo Luminescent Cell Viability Assay (Promega) was used according to manufacturer's protocol. Briefly, cells were plated in 96 well plates, treated 24h later with different doses of drugs in total volume of 100 μl. 24h later, 100 μl of CellTiter Glo reagent was added to the cells and incubated for 15 min at 37° C. and luminescence was measured using a Promega plate reader.

[2] = test system: HCT116 and HeLa cells; details: low glucose conditions plus metformin, 24 h
Description: FIG. 14. […] (A) Images of HCT116 and HeLa cells cultured for 24 hours in either nutrient-rich DMEM (containing 10% FBS and 10 mM glucose), DMEM containing 2.5 mM glucose (glucose deprivation), DMEM with 0.1% serum (serum deprivation) or DMEM with no glutamine, no methionine and no cysteine (amino acids deprivation). Media were replenished every 6 hours. (B) Quantification of cell death of HCT116 and HeLa cells cultured as in A as measured by propidium iodide uptake using flow cytometry. […] Media were replenished every 6 hours.
(§1) FIG. 31. […] (B) Immunoblotting analysis of total cell lysates used for immunoprecipitation in (A).
Cells were harvested by trypsinization, washed in PBS (pH 7.2), and then stained with propidium iodide (10 mg/ml) added immediately prior to analysis. Cell fluorescence was then measured on a flow cytometer (FACSCalibur; Becton Dickinson, CA) and analyzed using CellQuest software.

[3] = test system: PP2A-GSK3β-MCL-1 axis; experiment: Immunoblotting of phosphorylated GSK3β, MCL-1 and CIP2A; format: cell-based; details: HCT116 and HeLa
Description: FIG. 16. […] (A, B) Immunoblotting analysis of lysates derived from HCT116 and HeLa cells cultured for 24 hours in either nutrient-rich DMEM (containing 10% FBS and 10 mM glucose), DMEM containing 2.5 mM glucose (glucose deprivation), DMEM with 0.1% serum (serum deprivation) or DMEM with no glutamine, no methionine and no cysteine (amino acids deprivation). Media were replenished every 6 hours.
as §1
Whole cell lysates were prepared by directly lysing cells growing in culturing dishes or collected cell pellets in lysis buffer (40 mM Hepes pH 7.5, 120 mM NaCl, 1 mM EDTA, 10 mM pyrophosphate, 10 mM glycerophosphate, 50 mM NaF, 0.5 mM orthovanadate, and EDTA-free protease inhibitors (Roche) containing 0.3% CHAPS). Lysates were prepared from frozen tumors using GentleMACS dissociator. Lysates were cleared by centrifugation at 13000 g for 15 min. at 4° C., quantified using BioRad DC protein assay reagent followed by mixing 1:1 with 4% SDS, 100 mM Tris.Cl pH 6.8, 20% glycerol, 0.1% bromophenol blue and 5% β-mercaptoethanol added immediately before use and heating at 94° C. for 7 min. Equal amounts of proteins were then electrophoresed on 8-15% SDS-PAGE gels. Gels were run at 100 V (stacking gel)/150 V (separation gel) on Protean III apparatus (BioRad). Gels were transferred onto nitrocellulose and probed with the appropriate primary antibody for a variable incubation time depending on the experimental design, followed by the corresponding secondary antibodies diluted 1:5000-10000. The proteins were visualized by enhanced chemiluminescence (ECL) using ChemiDoc apparatus (BioRad) according to the manufacturer's instructions.

[4] = test system: HCT116 xenograft tumors; experiment: In vivo growth of HCT116 xenograft tumors; set-up: species or system mice
Excerpt: FIG. 13. […] Error bars indicate SEM.
as §1

[5] = test system: Bx-PC3 pancreatic cancer cells; format: cell-based; details: metformin in combination with low glucose, 24, 48 and 72 hrs
[6] = test system: BON-1 neuroendocrine tumor cells; experiment: BON-1 cell viability; format: cell-based; details: metformin with low (2.5 mM) glucose
Excerpt: FIG. 57. […] The assay as performed as described in the other examples.

[7] = test system: PDX models (patient-derived xenografts) from melanoma patients; experiment: In vivo growth of melanoma PDX models; set-up: species or system mice; details: metformin-intermittent fasting combination
Description: CD1 nude mice received single subcutaneous flank injections of 5×10^6 HCT-116 cells or 1×10^5 patient-derived melanoma cells suspended in 200 μl saline. After the tumors were established, mice were randomized in different groups. Mice were kept on the feeding/fasting protocols described. […] Tumor growth was monitored by bi-dimensional measurements using a caliper. Experiments have been done in accordance with the Italian Laws (D.L.vo 116/92 and following additions), which enforces EU 86/609 Directive (Council Directive 86/609/EEC of 24 Nov. 1986 on the approximation of laws, regulations and administrative provisions of the Member States regarding the protection of animals used for experimental and other scientific purposes). Mice have been housed accordingly to the guidelines set out in Commission Recommendation 2007/526/EC—Jun. 18, 2007 on guidelines for the accommodation and care of animals used for experimental and other scientific purposes. Note that nude mice show a strain-specific decline in glucose levels upon fasting, of a higher degree as compared to other commonly used mouse strains (C57B6).

[8] = Blood glucose levels in tumor-bearing mice; details: metformin 200 mg/kg oral gavage
Description: (B-D) The levels of blood glucose measured at the end of each feeding/fasting cycle in different experimental groups. […] Error bars indicate SEM. (n=5 per group).
To this end, mice bearing HCT116 xenografts were distributed into five groups as schematized in FIG. 13; the first two groups were kept on ad libitum feeding while the three other groups were subjected to 24-hour cycles of feeding-fasting. Fasting in those groups was achieved by complete withdrawal of food while allowing free access to water. […] The first of those three groups (Fed/Fast group) received vehicle every 48h to assess the effect of fasting-feeding cycles alone on tumor growth. […] Tumor growth was monitored in all groups.

In the case of `CN(C)C(=N)NC(=N)N.Cl` [metformin], the anti-proliferative effect [1] is reported as “only weak anti-proliferative effects”, the cell death [2] is reported as “marked cell death” and the GSK3β phosphorylation ([3]; low glucose-metformin combination) is reported as “almost completely abolished GSK3β phosphorylation”. For the same compound, the MCL-1 protein levels ([3]; metformin in low glucose) was “marked reduction in MCL-1 protein levels”, the “level of CIP2A” value ([3]; metformin treatment) was “reduction in the level of CIP2A” and the tumor growth ([4]; metformin 200 mg/kg every 48 h during fasting cycles (Met/Fast)) was “dramatically impeded”. The tumor growth ([4]; metformin alone, ad libitum feeding, 200 mg/kg oral gavage) was “did not exert any significant tumor restraining effect”, the “sensitization by RAD51 knockdown” value [5] was “dramatically sensitizes” and the cell viability [6] was “reduction in cell viability”. For the same compound, the “tumor growth in PDX models” value [7] was “also works on PDX models of tumor” and the blood glucose levels [8] was “reduced blood glucose levels but to a much less extent than that induced by fasting”.
